Reference: ChEMBL document CHEMBL1201862, “PubChem BioAssay data set” (2004)
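In this assay, cells in 96-well plates receive the compound at five concentrations for 48 hours. Endpoints are linearly interpolated between the surrounding concentrations. GI50: concentration for 50% inhibition of growth.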 Activity calls are given as the source filed them. Cut-off read from the data, not from the text of the source: active = GI50 up to about 1.1 µM and inactive = higher.

Legend:
Test in all cases: growth of human tumour cells (NCI), 48 h
KM-20L2 = test system: KM-20L2
HT-29 = test system: HT-29
KM12 = test system: KM12
SF-268 = test system: SF-268
OVCAR-4 = test system: OVCAR-4
NCI-H23 = test system: NCI-H23
LXFL 529 = test system: LXFL 529
A549 = test system: A549
A498 = test system: A498
HCT-15 = test system: HCT-15
SN12C = test system: SN12C
UACC-257 = test system: UACC-257
U-251 = test system: U-251
OVCAR-8 = test system: OVCAR-8
NCI-H226 = test system: NCI-H226
RXF 393 = test system: RXF 393
SK-MEL-2 = test system: SK-MEL-2
COLO 205 = test system: COLO 205
UO-31 = test system: UO-31
OVCAR-3 = test system: OVCAR-3
SNB-78 = test system: SNB-78
SW-620 = test system: SW-620
SK-MEL-28 = test system: SK-MEL-28
UACC-62 = test system: UACC-62
HL-60 = test system: HL-60
HOP-62 = test system: HOP-62
DLD-1 = test system: DLD-1
HCT-116 = test system: HCT-116
OVCAR-5 = test system: OVCAR-5
SR = test system: SR
MOLT-4 = test system: MOLT-4
DMS-273 = test system: DMS-273
ACHN = test system: ACHN
786-0 = test system: 786-0
M14 = test system: M14
SNB-19 = test system: SNB-19
CCRF-CEM = test system: CCRF-CEM
CAKI-1 = test system: CAKI-1
K562 = test system: K562
SF-539 = test system: SF-539
HCC 2998 = test system: HCC 2998
SF-295 = test system: SF-295
TK-10 = test system: TK-10
IGROV-1 = test system: IGROV-1
LOX IMVI = test system: LOX IMVI
NCI-H460 = test system: NCI-H460
EKVX = test system: EKVX
RPMI-8226 = test system: RPMI-8226
NCI-H522 = test system: NCI-H522
SNB-75 = test system: SNB-75
Malme-3M = test system: Malme-3M
HOP-18 = test system: HOP-18
SK-MEL-5 = test system: SK-MEL-5
SK-OV-3 = test system: SK-OV-3
M19-MEL = test system: M19-MEL
HOP-92 = test system: HOP-92
DMS-114 = test system: DMS-114

O=C(O)CCSC(=O)Nc1ccccc1
GI50 (KM-20L2): > 100 µM (inactive) | GI50 (HT-29): > 100 µM (inactive) | GI50 (KM12): > 100 µM (inactive) | GI50 (SF-268): 44.8 µM (inactive) | GI50 (OVCAR-4): > 100 µM (inactive) | GI50 (NCI-H23): > 100 µM (inactive) | GI50 (LXFL 529): 61.9 µM (inactive) | GI50 (A549): > 100 µM (inactive) | GI50 (A498): > 100 µM (inactive) | GI50 (HCT-15): > 100 µM | GI50 (SN12C): > 100 µM (inactive) | GI50 (UACC-257): > 100 µM (inactive) | GI50 (U-251): > 100 µM (inactive) | GI50 (OVCAR-8): > 100 µM (inactive) | GI50 (NCI-H226): > 100 µM (inactive) | GI50 (RXF 393): > 100 µM (inactive) | GI50 (SK-MEL-2): > 100 µM (inactive) | GI50 (COLO 205): > 100 µM (inactive) | GI50 (UO-31): > 100 µM (inactive) | GI50 (OVCAR-3): > 100 µM (inactive) | GI50 (SNB-78): > 100 µM (inactive) | GI50 (SW-620): 92.9 µM (inactive) | GI50 (SK-MEL-28): > 100 µM (inactive) | GI50 (UACC-62): 64.4 µM (inactive) | GI50 (HL-60): > 100 µM (inactive) | GI50 (HOP-62): > 100 µM (inactive) | GI50 (DLD-1): > 100 µM (inactive) | GI50 (HCT-116): > 100 µM (inactive) | GI50 (OVCAR-5): > 100 µM (inactive) | GI50 (SR): > 100 µM (inactive) | GI50 (MOLT-4): > 100 µM (inactive) | GI50 (DMS-273): > 100 µM (inactive) | GI50 (ACHN): 97.9 µM (inactive) | GI50 (786-0): > 100 µM (inactive) | GI50 (M14): > 100 µM (inactive) | GI50 (SNB-19): > 100 µM (inactive) | GI50 (CCRF-CEM): > 100 µM (inactive) | GI50 (CAKI-1): > 100 µM (inactive) | GI50 (K562): > 100 µM (inactive) | GI50 (SF-539): > 100 µM (inactive) | GI50 (HCC 2998): > 100 µM (inactive) | GI50 (SF-295): > 100 µM (inactive) | GI50 (TK-10): > 100 µM (inactive) | GI50 (IGROV-1): 94.6 µM (inactive) | GI50 (LOX IMVI): > 100 µM (inactive) | GI50 (NCI-H460): > 100 µM (inactive) | GI50 (EKVX): > 100 µM (inactive) | GI50 (RPMI-8226): > 100 µM (inactive)

COC1=CC(C)C2C[C@H]3O[C@H](O)C[C@H]4C(C)C(=O)C(O)C([C@@]2(C)C1=O)[C@@]34C (stereo partly specified)
GI50 (NCI-H522): > 100 µM (inactive) | GI50 (HT-29): > 100 µM (inactive) | GI50 (KM12): > 100 µM (inactive) | GI50 (NCI-H23): > 100 µM (inactive) | GI50 (LXFL 529): > 100 µM (inactive) | GI50 (A549): > 100 µM (inactive) | GI50 (A498): > 100 µM (inactive) | GI50 (HCT-15): > 100 µM | GI50 (SN12C): > 100 µM (inactive) | GI50 (UACC-257): > 100 µM (inactive) | GI50 (U-251): > 10 µM (inactive) | GI50 (OVCAR-8): > 100 µM (inactive) | GI50 (NCI-H226): > 100 µM (inactive) | GI50 (RXF 393): > 100 µM (inactive) | GI50 (COLO 205): > 100 µM (inactive) | GI50 (UO-31): > 100 µM (inactive) | GI50 (SNB-75): > 100 µM (inactive) | GI50 (OVCAR-3): > 100 µM (inactive) | GI50 (SNB-78): > 100 µM (inactive) | GI50 (Malme-3M): > 100 µM (inactive) | GI50 (SW-620): > 100 µM (inactive) | GI50 (SK-MEL-28): > 100 µM (inactive) | GI50 (HOP-18): > 100 µM (inactive) | GI50 (UACC-62): > 100 µM (inactive) | GI50 (DLD-1): > 100 µM (inactive) | GI50 (HCT-116): > 100 µM (inactive) | GI50 (SK-MEL-5): > 100 µM (inactive) | GI50 (MOLT-4): > 100 µM (inactive) | GI50 (SK-OV-3): > 100 µM (inactive) | GI50 (DMS-273): > 100 µM (inactive) | GI50 (ACHN): > 100 µM (inactive) | GI50 (786-0): > 100 µM (inactive) | GI50 (M14): > 100 µM (inactive) | GI50 (M19-MEL): > 100 µM (inactive) | GI50 (CCRF-CEM): > 100 µM (inactive) | GI50 (CAKI-1): > 100 µM (inactive) | GI50 (K562): > 100 µM (inactive) | GI50 (SF-539): > 100 µM (inactive) | GI50 (HCC 2998): > 100 µM (inactive) | GI50 (HOP-92): > 100 µM (inactive) | GI50 (SF-295): > 100 µM (inactive) | GI50 (TK-10): > 100 µM (inactive) | GI50 (IGROV-1): > 100 µM (inactive) | GI50 (LOX IMVI): > 100 µM (inactive) | GI50 (NCI-H460): > 100 µM (inactive) | GI50 (EKVX): > 100 µM (inactive) | GI50 (RPMI-8226): > 100 µM (inactive) | GI50 (DMS-114): > 100 µM (inactive)

Cc1ccc2c(C3Cc4ccccc4N3C(=O)/C=C\C(=O)O)c(C)[nH]c2c1 (stereo unspecified)
GI50 (KM-20L2): > 100 µM (inactive) | GI50 (NCI-H522): 24.7 µM (inactive) | GI50 (HT-29): 73.5 µM (inactive) | GI50 (KM12): 35.2 µM (inactive) | GI50 (OVCAR-4): > 100 µM (inactive) | GI50 (NCI-H23): 67.9 µM (inactive) | GI50 (LXFL 529): 18.7 µM (inactive) | GI50 (A549): > 100 µM (inactive) | GI50 (A498): 65.8 µM (inactive) | GI50 (HCT-15): 26.9 µM | GI50 (SN12C): 49.8 µM (inactive) | GI50 (UACC-257): 41.3 µM (inactive) | GI50 (U-251): 44.6 µM (inactive) | GI50 (OVCAR-8): 30.6 µM (inactive) | GI50 (NCI-H226): > 100 µM (inactive) | GI50 (RXF 393): 29.9 µM (inactive) | GI50 (SK-MEL-2): 17.5 µM (inactive) | GI50 (COLO 205): 22.3 µM (inactive) | GI50 (UO-31): 44.3 µM (inactive) | GI50 (SNB-75): 35.4 µM (inactive) | GI50 (OVCAR-3): 19.6 µM (inactive) | GI50 (SNB-78): 17.5 µM (inactive) | GI50 (Malme-3M): 33.5 µM (inactive) | GI50 (SW-620): 33.1 µM (inactive) | GI50 (SK-MEL-28): 59 µM (inactive) | GI50 (UACC-62): 29.2 µM (inactive) | GI50 (HL-60): 19.6 µM (inactive) | GI50 (HOP-62): 30.1 µM (inactive) | GI50 (DLD-1): 60.3 µM (inactive) | GI50 (HCT-116): 53 µM (inactive) | GI50 (OVCAR-5): > 100 µM (inactive) | GI50 (SR): 25.1 µM (inactive) | GI50 (SK-MEL-5): 41.4 µM (inactive) | GI50 (MOLT-4): 29.5 µM (inactive) | GI50 (SK-OV-3): > 100 µM (inactive) | GI50 (DMS-273): 41.7 µM (inactive) | GI50 (ACHN): > 100 µM (inactive) | GI50 (786-0): 47.9 µM (inactive) | GI50 (M14): 44.4 µM (inactive) | GI50 (M19-MEL): 67.5 µM (inactive) | GI50 (SNB-19): 40.7 µM (inactive) | GI50 (CCRF-CEM): 23.5 µM (inactive) | GI50 (CAKI-1): 46.5 µM (inactive) | GI50 (K562): 22.2 µM (inactive) | GI50 (SF-539): 47.2 µM (inactive) | GI50 (HCC 2998): 73.8 µM (inactive) | GI50 (HOP-92): 30.8 µM (inactive) | GI50 (SF-295): 28.8 µM (inactive) | GI50 (TK-10): 56.1 µM (inactive) | GI50 (IGROV-1): 41 µM (inactive) | GI50 (LOX IMVI): 30.6 µM (inactive) | GI50 (NCI-H460): > 100 µM (inactive) | GI50 (EKVX): 78.7 µM (inactive) | GI50 (RPMI-8226): 24.4 µM (inactive) | GI50 (DMS-114): 31.4 µM (inactive)
